Values joined by “and” are separate entries in the source; they are usually repeats but may differ in a detail not shown here. Equal entries are not always repeated. No end group written: not given here.
Test system: sperm from regions of salmon testes
Test: Motility of sperm from regions of salmon testes after hormone treatment
Type: cell-based
Settings: regions C of testes of male salmon caught in a river in October; treated with different types of hormones
Method: The immature testicular regions A, B, and C are ground and diluted with an artificial seminal plasma. The grinding is performed by the following procedure. First, the testes are cut into small pieces with scissors such that the membranes surrounding the spermatids of the testes are peeled off. […] Here, care should be taken because a high speed of the impeller causes cell disruption, increasing the possibility that impurities may increase. Immature regions (except for regions D where semen leaks out, see FIG. 4) were collected by cutting the testes of male salmon. […] Regions C of the testes of male salmon caught in a river in October were treated with three different types of hormones: hGC, luteinizing hormone-releasing hormone (LhRH), and DHP.

luteinizing hormone-releasing hormone (QHWSYGLRPG; ends and bridges not checked; UniProt P01148 24-33, looked up) [LhRH, hormone used for comparison with hCG]
Sperm motility (%): 5% and 5 ± 2.8%
